Read-outs that look alike come from different tables or passages of the source.
Columns and labels:
CSF1R = CSF1R (Homo sapiens, UniProt P07333); test: KINOMEscan competition binding assay for CSF1R; design: DNA tag for qPCR (not a peptide); host or cells: E. coli/T7 phage or HEK-293; details: @ 0.1 uM
Summary of the method: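 Values are either % inhibition at 0.1 uM, relative to DMSO (100% Ctrl) and a control compound (0% Ctrl), or Kd from an 11-point 3-fold series fitted with Hill slope −1. DNA-tagged kinase binds immobilized ligand beads with compound for 1 h at room temperature, and eluted kinase is measured by qPCR.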

Axl = target: T1, Axl (Homo sapiens, UniProt P30530); test: LanthaScreen Eu kinase binding assay for Axl; details: read-out: Axl kinase binding activity (Kd)
T1 sequence (P30530 26-894): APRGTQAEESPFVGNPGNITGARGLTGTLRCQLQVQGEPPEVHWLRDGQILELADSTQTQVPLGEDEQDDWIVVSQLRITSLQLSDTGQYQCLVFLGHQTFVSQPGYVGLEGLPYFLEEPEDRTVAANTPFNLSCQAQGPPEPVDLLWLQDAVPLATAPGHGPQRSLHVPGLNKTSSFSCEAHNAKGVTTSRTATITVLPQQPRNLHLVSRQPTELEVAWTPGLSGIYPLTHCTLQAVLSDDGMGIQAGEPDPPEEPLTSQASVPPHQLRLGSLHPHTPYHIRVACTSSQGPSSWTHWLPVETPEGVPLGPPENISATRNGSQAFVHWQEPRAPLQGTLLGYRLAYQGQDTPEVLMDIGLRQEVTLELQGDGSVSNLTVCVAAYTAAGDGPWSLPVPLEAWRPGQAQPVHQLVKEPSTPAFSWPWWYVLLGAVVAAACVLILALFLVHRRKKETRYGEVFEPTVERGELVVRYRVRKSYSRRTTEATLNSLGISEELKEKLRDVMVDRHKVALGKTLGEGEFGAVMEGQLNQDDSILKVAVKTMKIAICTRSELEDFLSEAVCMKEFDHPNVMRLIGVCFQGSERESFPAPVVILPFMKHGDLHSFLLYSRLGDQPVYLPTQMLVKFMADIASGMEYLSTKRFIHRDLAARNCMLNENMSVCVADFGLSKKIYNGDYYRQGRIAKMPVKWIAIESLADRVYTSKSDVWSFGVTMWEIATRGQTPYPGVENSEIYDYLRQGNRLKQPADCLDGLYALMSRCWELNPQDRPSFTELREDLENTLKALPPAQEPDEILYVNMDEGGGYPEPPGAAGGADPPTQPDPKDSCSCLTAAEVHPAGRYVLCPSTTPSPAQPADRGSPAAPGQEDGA
Summary of the method: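 Kd values come from control-normalized FRET loss, referenced to DMSO vehicle wells, after 1 h at room temperature. Each compound was serially diluted over eight steps in DMSO and competed against Tracer 236 (Alexa Fluor 647) for the kinase, which was tagged by a Eu anti-GST antibody.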

[1] = read-out: CSF1R kinase binding activity, Percent (%) inhibition
[2] = read-out: CSF1R kinase binding activity, Range

Sequence of CSF1R (P07333 20-972): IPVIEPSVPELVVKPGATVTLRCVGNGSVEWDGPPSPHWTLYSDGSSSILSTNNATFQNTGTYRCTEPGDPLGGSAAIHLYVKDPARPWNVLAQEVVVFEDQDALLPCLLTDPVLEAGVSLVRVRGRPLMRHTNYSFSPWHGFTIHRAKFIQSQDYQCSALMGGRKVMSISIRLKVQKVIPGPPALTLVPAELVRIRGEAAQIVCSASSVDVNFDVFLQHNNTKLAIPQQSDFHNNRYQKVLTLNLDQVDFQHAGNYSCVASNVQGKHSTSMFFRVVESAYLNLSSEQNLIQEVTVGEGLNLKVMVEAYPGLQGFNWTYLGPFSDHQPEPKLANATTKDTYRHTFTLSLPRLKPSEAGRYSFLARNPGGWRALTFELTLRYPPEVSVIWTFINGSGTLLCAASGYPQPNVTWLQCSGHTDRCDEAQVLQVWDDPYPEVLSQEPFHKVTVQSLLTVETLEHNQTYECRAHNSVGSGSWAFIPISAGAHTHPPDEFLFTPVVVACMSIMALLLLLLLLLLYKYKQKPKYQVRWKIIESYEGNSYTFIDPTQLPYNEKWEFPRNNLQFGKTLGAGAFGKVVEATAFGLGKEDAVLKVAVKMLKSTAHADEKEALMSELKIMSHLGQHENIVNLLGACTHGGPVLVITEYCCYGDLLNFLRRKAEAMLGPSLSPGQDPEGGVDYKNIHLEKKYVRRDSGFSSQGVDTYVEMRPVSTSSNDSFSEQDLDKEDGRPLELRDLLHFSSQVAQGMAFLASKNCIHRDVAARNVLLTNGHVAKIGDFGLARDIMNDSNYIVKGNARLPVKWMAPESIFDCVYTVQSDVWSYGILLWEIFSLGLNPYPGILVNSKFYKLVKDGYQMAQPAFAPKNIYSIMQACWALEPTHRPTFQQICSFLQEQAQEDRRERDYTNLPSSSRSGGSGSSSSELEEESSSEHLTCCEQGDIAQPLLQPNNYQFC

inhibition at 0.1 µM (CSF1R; [1]) | inhibition at 0.1 µM (CSF1R; [2]) | Kd (Axl) | Compound
93% | ≥ 80% | < 100 nM | COc1cc2nccc(Oc3ccc(NC(=O)c4nn(C)cc4OCC(F)(F)F)c(F)c3)c2cc1OC [Compound 45]
96% | ≥ 80% | < 100 nM | COc1cc2nccc(Oc3ccc(NC(=O)c4nn(CCO)cc4OCC(F)(F)F)c(F)c3)c2cc1OC [Compound 46]
91% | ≥ 80% | < 100 nM | COc1cc2nccc(Oc3ccc(NC(=O)c4nn(C5CCCC5)cc4OCC(F)(F)F)c(F)c3)c2cc1OC [Compound 47]
82% | ≥ 80% | < 100 nM | COc1cc2nccc(Oc3ccc(NC(=O)c4nn(CC(C)C)cc4OCC(F)(F)F)c(F)c3)c2cc1OC [Compound 48]
66% | 50 to 80% | < 100 nM | COCCn1cc(OCC(F)(F)F)c(C(=O)Nc2ccc(Oc3ccnc4cc(OC)c(OC)cc34)cc2F)n1 [Compound 49]
80% | 50 to 80% | < 100 nM | COc1cc2nccc(Oc3ccc(NC(=O)c4nn(C)cc4OCC(F)(F)F)cc3F)c2cc1OC [Compound 50]
82% | ≥ 80% | < 100 nM | COc1cc2nccc(Oc3ccc(NC(=O)c4nn(CCO)cc4OCC(F)(F)F)cc3F)c2cc1OC [Compound 51]
71% | 50 to 80% | < 100 nM | COc1cc2nccc(Oc3ccc(NC(=O)c4nn(C5CCCC5)cc4OCC(F)(F)F)cc3F)c2cc1OC [Compound 52]
71% | 50 to 80% | < 100 nM | COc1cc2nccc(Oc3ccc(NC(=O)c4nn(CC(C)C)cc4OCC(F)(F)F)cc3F)c2cc1OC [Compound 53]
81% | ≥ 80% | < 100 nM | COCCn1cc(OCC(F)(F)F)c(C(=O)Nc2ccc(Oc3ccnc4cc(OC)c(OC)cc34)c(F)c2)n1 [Compound 54]
60% | 50 to 80% | < 100 nM | COc1cc2nccc(Oc3ccc(NC(=O)c4nn(C5CCOC5)cc4OCC(F)(F)F)cc3F)c2cc1OC (stereo not drawn) [Compound 55]
0% | < 50% | 100 to 500 nM | COc1cc2nccc(Oc3ccc(NC(=O)c4nn(CCO)cc4OCC(F)(F)F)cc3C)c2cc1OC [Compound 56]
97% | ≥ 80% | < 100 nM | COc1cc2nccc(Oc3ccc(NC(=O)c4nn(C5CCCC5)cc4OCC(F)(F)F)cc3C)c2cc1OC [Compound 57]
76% | 50 to 80% | < 100 nM | COc1cc2nccc(Oc3ccc(NC(=O)c4nn(CC(C)C)cc4OCC(F)(F)F)cc3C)c2cc1OC [Compound 58]
82% | ≥ 80% | < 100 nM | COc1cc2nccc(Oc3ccc(NC(=O)c4nn(CCO)cc4OCC(F)(F)F)cc3)c2cc1OC [Compound 59]
75% | 50 to 80% | < 100 nM | COc1cc2nccc(Oc3ccc(NC(=O)c4nn(C5CCCC5)cc4OCC(F)(F)F)cc3)c2cc1OC [Compound 60]
76% | 50 to 80% | < 100 nM | COCCn1cc(OCC(F)(F)F)c(C(=O)Nc2ccc(Oc3ccnc4cc(OC)c(OC)cc34)cc2)n1 [Compound 61]
54% | 50 to 80% | < 100 nM | COc1cc2nccc(Oc3ccc(NC(=O)c4nn(C5CCOC5)cc4OCC(F)(F)F)cc3)c2cc1OC (stereo not drawn) [Compound 62]
96% | ≥ 80% | < 100 nM | COc1cc2nccc(Oc3ccc(NC(=O)c4nn(CC(C)N)cc4OCC(F)(F)F)nc3)c2cc1OC (stereo not drawn) [Compound 63]
95% | ≥ 80% | < 100 nM | COc1cc2nccc(Oc3ccc(NC(=O)c4nn(CC(C)(F)F)cc4OCC(F)(F)F)nc3)c2cc1OC [Compound 64]

inhibition at 0.1 µM (CSF1R; [1]) | inhibition at 0.1 µM (CSF1R; [2]) | Kd (Axl) | Compound
96% | ≥ 80% | < 100 nM | COc1cc2nccc(Oc3ccc(NC(=O)c4nn(CCOC5CCC5)cc4OCC(F)(F)F)nc3)c2cc1OC [Compound 65]
96% | ≥ 80% | < 100 nM | COc1cc2nccc(Oc3ccc(NC(=O)c4nn(C5COC5)cc4OCC(F)(F)F)nc3)c2cc1OC [Compound 66]
96% | ≥ 80% | < 100 nM | COc1cc2nccc(Oc3ccc(NC(=O)c4nn(CCO)cc4OCC(F)(F)F)nc3)c2cc1OC [Compound 67]
98% | ≥ 80% | < 100 nM | COc1cc2nccc(Oc3ccc(NC(=O)c4nn(CCCN)cc4OCC(F)(F)F)nc3)c2cc1OC [Compound 68]
89% | ≥ 80% | < 100 nM | COc1cc2nccc(Oc3ccc(NC(=O)c4nn(C5CCCCC5)cc4OCC(F)(F)F)nc3)c2cc1OC [Compound 69]
79% | 50 to 80% | < 100 nM | COc1cc2nccc(Oc3ccc(NC(=O)c4nn(C5CCNC5)cc4OCC(F)(F)F)nc3)c2cc1OC (stereo not drawn) [Compound 70]
88% | ≥ 80% | < 100 nM | COc1cc2nccc(Oc3ccc(NC(=O)c4nn(CC5CCCC5)cc4OCC(F)(F)F)nc3)c2cc1OC [Compound 71]
96% | ≥ 80% | < 100 nM | COc1cc2nccc(Oc3ccc(NC(=O)c4nn(CC5CCNC5)cc4OCC(F)(F)F)nc3)c2cc1OC (stereo not drawn) [Compound 72]
97% | ≥ 80% | 100 to 500 nM | COc1cc2nccc(Oc3ccc(NC(=O)c4nn(CC5CNC5)cc4OCC(F)(F)F)nc3)c2cc1OC [Compound 73]
39% | < 50% | 100 to 500 nM | COc1cc2nccc(Oc3ccc(NC(=O)c4nn(C5CCNC5)cc4OCC(F)(F)F)c(F)c3)c2cc1OC (stereo not drawn) [Compound 74]
57% | 50 to 80% | 100 to 500 nM | COc1cc2nccc(Oc3ccc(NC(=O)c4nn(CCN)cc4OCC(F)(F)F)c(F)c3)c2cc1OC [Compound 75]
94% | ≥ 80% | < 100 nM | COc1cc2nccc(Oc3ccc(NC(=O)c4nn(CC(C)O)cc4OCC(F)(F)F)c(F)c3)c2cc1OC (stereo not drawn) [Compound 76]
84% | ≥ 80% | < 100 nM | COc1cc2nccc(Oc3ccc(NC(=O)c4nn(CCC(F)(F)F)cc4OCC4CCC4)nc3)c2cc1OC [Compound 166]
0% | < 50% | < 100 nM | CCCn1cc(OCC2CCC2)c(C(=O)Nc2ccc(Oc3ccnc4cc(OC)c(OC(F)(F)F)cc34)cn2)n1 [Compound 167]
95% | ≥ 80% | < 100 nM | COc1cc2nccc(Oc3ccc(NC(=O)c4nn(CCNC5CC5)cc4OCC(F)(F)F)nc3)c2cc1OC [Compound 168]
93% | ≥ 80% | < 100 nM | COc1cc2nccc(Oc3ccc(NC(=O)c4nn(CC5CCN(C)C5)cc4OCC(F)(F)F)nc3)c2cc1OC (stereo not drawn) [Compound 169]
90% | ≥ 80% | < 100 nM | COc1cc2nccc(Oc3ccc(NC(=O)c4nn(C5CC5)cc4OCCC(F)(F)F)nc3)c2cc1OC [Compound 170]
60% | 50 to 80% | < 100 nM | COCCOc1cn(C2CC2)nc1C(=O)Nc1ccc(Oc2ccnc3cc(OC)c(OC)cc23)nn1 [Compound 171]
36% | < 50% | ≥ 500 nM | COc1cc2nccc(Oc3ccc(NC(=O)c4nn(C5CC5)cc4OCC4CNC4)nn3)c2cc1OC [Compound 172]
69% | 50 to 80% | < 100 nM | COc1cc2nccc(Oc3ccc(NC(=O)c4nn(C5CC5)cc4OCCC(F)(F)F)nn3)c2cc1OC [Compound 173]

From patent publication US12162858B2, “Quinoline derivatives as inhibitors of AXL/MER RTK and CSF1R” (QURIENT CO., LTD., priority 2018, dated 2024)
